Source: patent US7439253B2, “Heterocyclic compounds, their preparation and their use as medicaments, in particular as antibacterials and beta-lactamase inhibitors” (Novexel, priority 2002, dated 2008)
Where a name gives a salt, the structure may show the parent alone. Read-outs that look alike come from different tables or passages of the source.

Tests used:
β-lactamase P99 = target: T1, β-lactamase P99 (Enterobacter cloacae, UniProt P05364); assay: biochemical; format: biochemical; conditions: 100 μM Nitrocefin, 50 mM sodium phosphate buffer pH 7.0, 37° C.
T1 construct: The β-lactamases are isolated from bacterial strains resistant to penicillins and to cephalosporins; endogenous in cells; host or cells: E. cloacae 293HT6 (soluble fraction of French-press lysate, 100 000 G supernatant)
Experimental: (§1) A. Preparation of the β-lactamases Tem˜1 and P99
(§2) The β-lactamases are isolated from bacterial strains resistant to penicillins and to cephalosporins (Tem1 and P99 are produced by E. coli 250HT21 and E. Cloacae 293HT6, respectively).
(§3) The bacteria are cultured in heart-brain broth at 37 g/l (DIFCO), at 37° C. They are harvested at the end of the exponential phase, cooled and centrifuged. The bacterial pellets are taken up in 50 mM sodium phosphate buffer pH 7.0 and again centrifuged. The bacteria are taken up in two volumes of this same buffer and lyzed by means of a French-Press kept at 4° C. After centrifugation for 1 h at 100 000 G, at 4° C., the supernatants containing the soluble fraction of the bacterial extracts are recovered and frozen at −80° C.
(§4) B. Determination of the β-lactamase Activity
(§5) The method uses, as substrate, Nitrocefin (OXOID), a chromogenic cephalosporin, whose product of hydrolysis by Beta-lactamases is red and absorbs at 485 nm. The β-lactamase activity is kinetically determined by measuring the variation in absorbance at 485 nm resulting from the hydrolysis of the substrate on a plate spectrophotometer (Spectra Max Plus from Molecular Devices). The experiments are performed at 37° C. The quantity of enzyme was normalized and the measurements are performed at the initial speed.
(§6) C. Determination of the β-lactamase Inhibiting Activity
(§7) Two measurements are carried out, without preincubation and with preincubation of the enzyme and of the inhibitor (5 min), in order to test the irreversibility of the reaction. The products are tested at 6 or 8 concentrations in duplicate. The reaction mixture contains 100 μM of Nitrocefin and 50 mM sodium phosphate buffer pH 7.0. D. Calculations of the IC50 Values
(§8) The rates of hydrolysis are measured with and without inhibitor. The concentration of inhibitor which inhibits by 50% the reaction of hydrolysis of Nitrocefin by the enzyme (IC50) is determined. The data processing is carried out with the aid of the GraFit software (Erathycus Software).

β-lactamase TEM1 = target: T2, β-lactamase TEM1 (Escherichia coli, UniProt P62593); assay: β-lactamase inhibiting activity (Nitrocefin hydrolysis); format: biochemical, E. coli 250HT21
T2 construct: The β-lactamases are isolated from bacterial strains resistant to penicillins and to cephalosporins; endogenous in cells; host or cells: E. coli 250HT21 (soluble fraction of French-press lysate, 100 000 G supernatant)
Experimental: as §1, §2, §3, §4, §5, §6, §7, §8

[1] = 100 μM Nitrocefin, 50 mM sodium phosphate buffer pH 7.0, 37° C., read-out: IC50 nM/TEM1

T1 sequence (P05364 21-381): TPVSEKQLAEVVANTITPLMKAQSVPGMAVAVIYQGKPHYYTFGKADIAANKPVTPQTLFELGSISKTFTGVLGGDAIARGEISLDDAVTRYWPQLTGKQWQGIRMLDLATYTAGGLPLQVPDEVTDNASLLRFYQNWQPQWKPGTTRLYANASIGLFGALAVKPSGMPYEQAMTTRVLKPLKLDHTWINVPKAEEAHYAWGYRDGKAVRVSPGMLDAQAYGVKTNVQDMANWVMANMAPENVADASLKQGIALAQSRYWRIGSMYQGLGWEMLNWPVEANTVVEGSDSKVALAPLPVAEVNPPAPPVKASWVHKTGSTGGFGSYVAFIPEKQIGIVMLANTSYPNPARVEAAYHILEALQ
T2 sequence (P62593 24-286 limits assumed): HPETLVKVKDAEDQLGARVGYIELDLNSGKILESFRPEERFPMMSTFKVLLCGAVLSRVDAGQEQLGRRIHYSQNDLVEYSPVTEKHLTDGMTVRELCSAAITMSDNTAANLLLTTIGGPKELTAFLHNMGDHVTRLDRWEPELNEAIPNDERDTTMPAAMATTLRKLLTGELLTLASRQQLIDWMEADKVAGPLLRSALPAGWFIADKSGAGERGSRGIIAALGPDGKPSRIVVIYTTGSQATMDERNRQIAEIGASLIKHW

Row | Structure (SMILES) | IC50 (β-lactamase P99) [nM] | IC50 (β-lactamase TEM1; [1]) [nM] | IC50 (β-lactamase TEM1) [nM]
1 | COCCOCOc1ccc2c(c1)[C@@H]1CN(C(=O)N1OS(=O)(=O)O)[C@H]2C(=O)NOC (relative stereo) [Example 33, Sodium Salt of Trans-1,2,3,5-tetrahydro-N-methoxy-8-[(2-methoxyethoxy)methoxy]-3-oxo-2-(sulfoxy)-1,4-methano-4H-2,4-benzodiazepine-5-carboxamide] | 17 | 56 | 
2 | CCOC(=O)Cn1cc2c(n1)[C@@H](C(=O)OC)N1C[C@H]2N(OS(=O)(=O)O)C1=O (relative stereo) [Example 5, Triethylammonium Salt of Ethyl Trans-5,6-dihydro-8-(methoxycarbonyl)-6-oxo-5-(sulfoxy)-4H-4,7-methanopyrazolo[3,4-e][1,3]diazepine-2(8H)-acetate] | 17 | 13 | 
3 | Cc1ccccc1-c1cc2c(s1)[C@@H](C(N)=O)N1C[C@H]2N(OS(=O)(=O)O)C1=O (relative stereo) [Example 24, Sodium Salt of Trans-4,5,6,8-tetrahydro-2-(2-methylphenyl)-6-oxo-5-(sulfoxy)-4,7-methano-7H-thieno[2,3-e][1,3]diazepine-8-carboxamide] | 10 | 2 | 
4 | NC(=O)C1c2nn(-c3ccccc3)cc2C2CN1C(=O)N2OS(=O)(=O)O (stereo not drawn) [Example 45, Sodium Salt of trans-2,5,6,8-tetrahydro-6-oxo-2-phenyl-5-(sulfoxy)-4H-4,7-methanopyrazolo[3,4-e][1,3]diazepine-8-carboxamide] | 12 |  | 1
